Experimental data: patent US20070054887A1, “Methods for treating bladder dysfunction” (BioXell S.p.A, priority 2003, published 2007)

Experiments:
hBC = assay: androgen-stimulated hBC growth, 48 h incubation; assay type: cell-based, human; conditions: DHT 10 nM, Compound A 1 nM, finasteride 1 nM, FIG. 5
From the text: Results are expressed as percentage variation (mean±SEM) over their relative controls and derived from at least three different experiments obtained from three distinct hBC cell preparations. *P<0.05 (vs. control); °P<0.01 (vs. androgen-treated cells).

BPH cells = conditions: previously found, cited from earlier work
human bladder cells = assay: inhibition of basal human bladder cell growth; assay type: cell-based; conditions: stimulated and basal bladder cell growth, FIG. 4; in some cases significantly greater than anti-androgens such as finasteride

In the case of `CC(C)(C)NC(=O)[C@H]1CC[C@H]2[C@@H]3CC[C@H]4NC(=O)C=C[C@]4(C)[C@H]3CC[C@]12C` [finasteride, reference compound], the “hBC proliferation stimulated by the androgen DHT” value (hBC) is reported as “no significant effect”.
In the case of `C=C1/C(=C\C=C2/CCC[C@]3(C)C([C@H](C)CC#CC(C)(C)O)=CC[C@@H]23)C[C@@H](O)C[C@@H]1O` [Compound B, 1,25-dihydroxy-16-ene-23-yne cholecalciferol], the BPH cell proliferation (BPH cells; also counteracted mitogenic activity of KGF and IGFI) is given as “inhibited”, the “apoptosis in BPH cells” value (BPH cells; unstimulated and KGF-stimulated BPH cells) is given as “induced” and the “inhibition of bladder cell growth” value (human bladder cells) is given as “demonstrated”.
